Data from patent US20070093552A1, “Early insulin secretion stimulator” (priority 2003, published 2007).

Experiments:
Format in all cases: in vivo, human
[1] = system: borderline diabetic patients; test: Changes in blood glucose and blood insulin levels after fasting, absence of glucose load (Test Example 3); conditions: fasted, 10 mg; for I: blood insulin level: unit assumed
Experimental: Three borderline diabetic patients (person, person and person) were instructed to fast from 8:00 pm (to ensure absence of glucose load), and were administered a placebo once or the test agent (corosolic acid) once at 9:00 am on the following day, after which the changes in blood glucose levels and blood insulin levels were measured. The test subjects were given absolutely no information regarding placebo or test agent (crossover, double-blind). The corosolic acid was administered in a single 10 mg dose, and each test was conducted twice.
FIG. 3 is a graph showing changes in blood glucose levels with administration of corosolic acid and a placebo in the absence of a glucose load, and FIG. 4 is a graph showing changes in blood insulin levels with administration of corosolic acid and a placebo in the absence of a glucose load.

test subjects = test: Glucose tolerance test after administration of corosolic acid, banaba extract or placebo, blood glucose level assayed (Test Example 2); conditions: 10 mg oral, 75 g glucose load, p<0.05, 35 subjects
Experimental: The following test was conducted to confirm that corosolic acid has a hypoglycemic effect. A glucose tolerance test was performed after administration of corosolic acid, banaba extract or a placebo, in a double-blind crossover manner, and the blood glucose level (plasma glucose concentration) was assayed.
First, 35 test subjects were orally administered corosolic acid (10 mg, ≧99% purity), banaba extract (trade name: COROSOLIA M, product of Use Techno Corporation; administered at 10 mg of corosolic acid) or a placebo, and blood was sampled immediately thereafter with the blood glucose level at that time designated as the value at 0 minutes. Immediately after blood sampling, 75 g of glucose was orally administered to each test subject to start a glucose tolerance test, and blood was sampled after periods of 30 minutes, 60 minutes, 90 minutes, 120 minutes and 180 minutes for measurement of the blood glucose level.
FIG. 2 is a graph showing blood glucose levels during the glucose tolerance test. The horizontal axis represents time (min) after start of the glucose tolerance test, and the vertical axis represents plasma glucose concentration (mg/dL). In the graph, (c) is a case with administration of corosolic acid, (d) is a case with administration of banaba leaf extract and (e) is a case with administration of the placebo.

[2] = system: borderline diabetic patients; test: Glucose tolerance test after administration of corosolic acid or placebo, blood insulin level (IRI) assayed (Test Example 1); conditions: 10 mg oral, 75 g glucose load, p<0.05, 31 patients
Experimental: A glucose tolerance test was performed after administration of corosolic acid or a placebo, in a double-blind crossover manner, and the blood insulin level (IRI: immunoreactive insulin) was assayed.
First, 31 borderline diabetic patients as test subjects were orally administered corosolic acid (10 mg, ≧99% purity) or a placebo, and blood was sampled immediately thereafter with the blood insulin level at that time designated as the value at 0 minutes. Immediately after blood sampling, 75 g of glucose was orally administered to each test subject to start a glucose tolerance test, and blood was sampled after periods of 30 minutes, 60 minutes, 90 minutes, 120 minutes and 180 minutes for measurement of the blood insulin level.
FIG. 1 is a graph showing the blood insulin levels during the glucose tolerance test. The horizontal axis represents time (min) after start of the glucose tolerance test, and the vertical axis represents IRI (μU/mL). In the graph, (a) is a case with administration of corosolic acid and (b) is a case with administration of the placebo.

[3] = 120 minutes after start of glucose tolerance test

Q: With `C[C@H]1[C@H](C)CC[C@]2(C(=O)O)CC[C@]3(C)C(=CC[C@@H]4[C@@]5(C)C[C@@H](O)[C@H](O)C(C)(C)[C@@H]5CC[C@]43C)[C@H]12` [corosolic acid] as the molecule, how does the G: blood glucose level ([1]; test subject A, after 0 min) read?
A: Its G: blood glucose level is 110 mg/dL.

Q: What about the I: blood insulin level ([1]; test subject A, after 0 min) of the same molecule?
A: The I: blood insulin level was 9 µU/mL.

Q: What about the I: blood insulin level ([1]; test subject A, after 30 min) of the same molecule?
A: The I: blood insulin level was 6.9 µU/mL.

Q: And the I: blood insulin level ([1]; test subject A, after 60 min)?
A: Its I: blood insulin level is 6.6 µU/mL.

Q: And the I: blood insulin level ([1]; test subject A, after 90 min)?
A: The I: blood insulin level was 5.9 µU/mL.

Q: And the I: blood insulin level ([1]; test subject A, after 120 min)?
A: The I: blood insulin level was 6.6 µU/mL.

Q: What about the I: blood insulin level ([1]; test subject A, after 180 min) of the same molecule?
A: The I: blood insulin level was 5.1 µU/mL.

Q: And the I: blood insulin level ([1]; test subject B, after 0 min)?
A: The I: blood insulin level was 2.5 µU/mL.

Q: What about the I: blood insulin level ([1]; test subject B, after 30 min) of the same molecule?
A: Its I: blood insulin level is 2.6 µU/mL.

Q: What about the I: blood insulin level ([1]; test subject B, after 60 min) of the same molecule?
A: Its I: blood insulin level is 3 µU/mL.

Q: What about the I: blood insulin level ([1]; test subject B, after 90 min) of the same molecule?
A: The I: blood insulin level was 2 µU/mL.

Q: What about the G: blood glucose level ([1]; test subject B, after 120 min) of the same molecule?
A: The G: blood glucose level was 150 mg/dL.

Q: What about the I: blood insulin level ([1]; test subject B, after 120 min) of the same molecule?
A: Its I: blood insulin level is 3.4 µU/mL.

Q: And the I: blood insulin level ([1]; test subject B, after 180 min)?
A: Its I: blood insulin level is 2.4 µU/mL.

Q: And the G: blood glucose level ([1]; test subject C, after 0 min)?
A: The G: blood glucose level was 90 mg/dL.

Q: What about the I: blood insulin level ([1]; test subject C, after 0 min) of the same molecule?
A: The I: blood insulin level was 4.5 µU/mL.

Q: And the G: blood glucose level ([1]; test subject C, after 30 min)?
A: The G: blood glucose level was 90 mg/dL.

Q: What about the I: blood insulin level ([1]; test subject C, after 30 min) of the same molecule?
A: Its I: blood insulin level is 4.1 µU/mL.

Q: And the G: blood glucose level ([1]; test subject C, after 60 min)?
A: The G: blood glucose level was 88 mg/dL.

Q: What about the I: blood insulin level ([1]; test subject C, after 60 min) of the same molecule?
A: The I: blood insulin level was 3.9 µU/mL.

Q: What about the G: blood glucose level ([1]; test subject C, after 90 min) of the same molecule?
A: The G: blood glucose level was 86 mg/dL.

Q: What about the I: blood insulin level ([1]; test subject C, after 90 min) of the same molecule?
A: The I: blood insulin level was 4.9 µU/mL.

Q: And the G: blood glucose level ([1]; test subject C, after 120 min)?
A: Its G: blood glucose level is 86 mg/dL.

Q: What about the I: blood insulin level ([1]; test subject C, after 120 min) of the same molecule?
A: Its I: blood insulin level is 4 µU/mL.

Q: What about the G: blood glucose level ([1]; test subject C, after 180 min) of the same molecule?
A: Its G: blood glucose level is 81 mg/dL.

Q: And the I: blood insulin level ([1]; test subject C, after 180 min)?
A: Its I: blood insulin level is 4 µU/mL.

Q: What about the “blood glucose level compared to placebo” value (test subjects; 90 minutes after start of glucose tolerance test) of the same molecule?
A: Its value is “significant decrease”.

Q: What about the “blood glucose level compared to placebo” value (test subjects; [3]) of the same molecule?
A: Its value is “significant decrease”.

Q: What about the “blood insulin level compared to placebo” value ([2]; 30 minutes after start of glucose tolerance test) of the same molecule?
A: The value was “significant increase”.

Q: What about the “blood insulin level compared to placebo” value [2, 3] of the same molecule?
A: The value was “significant drop”.
